Laboratory results taken from publication PMC137588 (BMC Neuroscience, 2002).
Read-outs that look alike come from different tables or passages of the source.

Legend:
mouse δ opioid receptor [1] = target: T1, mouse δ opioid receptor (Mus musculus, UniProt P32300); test: cell-based; assay type: cell-based; conditions: for Emax: HEK293, read-out: Max Inhibition %
mouse δ opioid receptor [2] = target: T1, mouse δ opioid receptor
mouse δ opioid receptor [3] = target: T1, mouse δ opioid receptor; assay type: binding; conditions: read-out: AFFINITY Ki
μ opioid receptors [4] = conditions: ref Gharagozlou et al. unpublished results; cited from earlier work
μ opioid receptors [5] = conditions: ref Gharagozlou et al. unpublished results; cited from earlier work; remark: listed apart in the source

T1 sequence (P32300 whole entry): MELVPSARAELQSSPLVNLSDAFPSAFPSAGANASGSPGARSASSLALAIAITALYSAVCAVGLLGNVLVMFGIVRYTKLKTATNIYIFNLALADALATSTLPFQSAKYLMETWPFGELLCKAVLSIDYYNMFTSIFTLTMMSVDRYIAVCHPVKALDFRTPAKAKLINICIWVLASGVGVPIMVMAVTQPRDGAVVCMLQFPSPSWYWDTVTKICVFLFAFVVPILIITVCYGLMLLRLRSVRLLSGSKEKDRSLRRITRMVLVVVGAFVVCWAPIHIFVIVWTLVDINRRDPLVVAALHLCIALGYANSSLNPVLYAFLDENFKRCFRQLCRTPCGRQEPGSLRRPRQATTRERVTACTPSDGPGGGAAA

Oc1ccc2c(c1)[C@@]13CCCC[C@@]1(O)[C@@H](C2)N(CC1CCC1)CC3 [Butorphanol]
Emax (mouse δ opioid receptor [1]): 64 ± 4% | IC50 (mouse δ opioid receptor [1]; IC50 ± SEM): 61 ± 12 nM

C[C@H]1[C@H]2Cc3ccc(O)cc3[C@]1(C)CCN2CC1CC1 [Cyclazocine]
Emax (mouse δ opioid receptor [1]): 53 ± 2% | IC50 (mouse δ opioid receptor [1]; IC50 ± SEM): 6 ± 3 nM

C[C@@]12CCCCC[C@@H](Cc3ccc(O)cc31)[C@@H]2N [Dezocine]
Emax (mouse δ opioid receptor [1]): 39% | IC50 (mouse δ opioid receptor [1]; IC50 ± SEM): 477 ± 152 nM

C[C@H]1[C@H]2Cc3ccc(O)cc3[C@]1(C)CCN2C [Metazocine]
Agonist efficacy classification at δ opioid receptors (mouse δ opioid receptor [1]): super agonists | Emax (mouse δ opioid receptor [1]): 77 ± 4% | IC50 (mouse δ opioid receptor [1]; IC50 ± SEM): 159 ± 70 nM

C=CCN1CC[C@]23c4c5ccc(O)c4O[C@H]2[C@@H](O)C=C[C@H]3[C@H]1C5 [Nalorphine]
Classification as antagonist at δ opioid receptor (mouse δ opioid receptor [2]): Antagonist

C=CCN1CCC2(C)c3cc(O)ccc3CC1C2C (centres unmarked) [SKF 10047]
Emax (mouse δ opioid receptor [1]): 68 ± 9% | IC50 (mouse δ opioid receptor [1]; IC50 ± SEM): 184 ± 121 nM

CN1CC[C@]2(C)c3cc(O)ccc3C[C@H]1C2(C)CCC(=O)CCC1CCCC1 (some centres unmarked) [WIN 44,441]
Max Inhibition % (mouse δ opioid receptor [1]): 54 ± 6 % | IC50 (mouse δ opioid receptor [1]; read-out: IC50 ± SEM): 40 ± 25 nM | Ki (mouse δ opioid receptor [3]): 2.6 ± 0.9 nM | affinity at μ opioid receptors (μ opioid receptors [4]): less than 1 nM | activation profile at μ opioid receptors (μ opioid receptors [5]): antagonist

C=C1C[C@H](C)[C@H]2[C@H]3Cc4ccc(O)cc4[C@@]2(CCN3CC2CCC2)C1 [Xorphanol]
Agonist efficacy classification at δ opioid receptors (mouse δ opioid receptor [1]): super agonists | Max Inhibition % (mouse δ opioid receptor [1]): 76 ± 4^$$ ## % | IC50 (mouse δ opioid receptor [1]; read-out: IC50 ± SEM): 8 ± 2 nM | Ki (mouse δ opioid receptor [3]): 1 ± 0.2 nM | affinity at μ opioid receptors (μ opioid receptors [4]): less than 1 nM | activation profile at μ opioid receptors (μ opioid receptors [5]): very weak agonist
